This is an account of results in US20230255975A1, “METHODS FOR TREATING CANCER WITH COMBINATION THERAPIES” (Celgene Corporation, priority 2020, published 2023).

Each structure is given as a SMILES string. Where two headings read alike, the source gives them in different places.

In one assay the test system is AMO1 cell line. Kind of assay: Proliferation assay. The format is cell-based. The following applies: AMO1; for IC50: Homo sapiens, read-out: IC50 concentration, proliferation. The method, then:
(§1) Proliferation and viability assays: Cell growth curves were determined by monitoring the viability of cells with Trypan blue exclusion on a Vi-Cell-XR (Becton Dickinson, Franklin Lakes, N.J., USA). Proliferation assays were performed in triplicate at least three times (n=3) using (3H)-thymidine incorporation. All data were plotted and analyzed using GraphPad Prism 7 (GraphPad Software, La Jolla, Calif., USA) software, represented as the mean with an error determined as ±s.d.
(§2) Proliferation and viability assay. Cell growth curves were determined by monitoring the viability of cells with Trypan blue exclusion on a Vi-Cell-XR (Becton Dickinson, Franklin Lakes, N.J., USA). Cell lines were plated in triplicate in 96-well round-bottom plates with the indicated drug concentrations or knockdown cells. […] All data were plotted and analyzed using GraphPad Prism 7 (GraphPad Software, La Jolla, Calif., USA) software, represented as the mean with an error determined as ±s.d.

For assay [1], the system named is AMO1-PR (pomalidomide resistant) cell line. Kind of assay: Proliferation assay. The format is cell-based. Conditions: for IC50: isogenic sensitive/resistant comparison, read-out: IC50 concentration, proliferation. The method, then: as §1, §2
Another assay has as its system K12PE cell line. Kind of assay: Proliferation assay. The format is cell-based. Conditions: for IC50: K12PE, read-out: IC50 concentration, proliferation. As for the experimental part:
as §1, §2

A further assay relates to K12PE-PR cell line. Kind of assay: Proliferation assay. The format is cell-based. The following applies: for IC50: K12PE-PR, isogenic sensitive/resistant comparison, read-out: IC50 concentration, proliferation. As for the experimental part: as §1, §2
Another assay has as its system H929 cell line. Kind of assay: Proliferation assay. Format: cell-based. The following applies: Homo sapiens, read-out: IC50 concentration, proliferation. The method, then:
as §1
(§3) Proliferation and viability assay. Cell growth curves were determined by monitoring the viability of cells with Trypan blue exclusion on a Vi-Cell-XR (Becton Dickinson, Franklin Lakes, N.J., USA). Cell lines were plated in triplicate in 96-well round-bottom plates with the indicated drug concentrations or knockdown cells. Proliferation assays were performed in triplicate at least three times (n=3) using either the WST-1 tetrazolium salt (Roche Applied Science) reagent used according to the manufacturer's specifications or by (3H)-thymidine incorporation as previously described (Bjorklund et al., Blood Cancer Journal 5, e354, 2015). All data were plotted and analyzed using GraphPad Prism 7 (GraphPad Software, La Jolla, Calif., USA) software, represented as the mean with an error determined as ±s.d.

The subject of the next assay is Mc-CAR cell line. Put plainly: Proliferation assay. Format: cell-based. The following applies: 72 h; MC-CAR; Day 3 post treatment; NEK2 inhibitor; read-out: IC50 concentration, proliferation. The method, then:
as §1, §3

In another assay the test system is H929-PR cell line. Kind of assay: Proliferation assay. Format: cell-based. Conditions: isogenic sensitive/resistant comparison, read-out: IC50 concentration, proliferation. As for the experimental part: as §3
Assay [2] relates to Ikaros (IKZF1), Aiolos (IKZF3) and ZFP91. Kind of assay: Substrate degradation by immunoblotting. Format: cell-based. Conditions: single agent. The method, then: Effect of NEK2 downregulation on Compound 5 and Compound 6-induced substrate degradation. […] The effect of NEK2 knockdown on pomalidomide mediated substrate degradation was also studied. Control and NEK2 shRNA cells were incubated to varying concentrations of pomalidomide. Pomalidomide treatment degraded Ikaros (IKZF1), Aiolos (IKZF3) and ZFP91 in a concentration dependent manner in control shRNA lines. A similar pattern of substrate degradation was maintained in NEK2 knockdown cell lines.

For assay [3], the system named is other kinases, including Cdk1 and Aurora B. The following applies: selective inhibitors of NEK2; Henise 2011, Innocenti 2012; cited from earlier work.
The test system of assay [4] is PLK1 signaling in MM1.S cells. Put plainly: Immunoblot of PLK1 signaling. The format is cell-based. Conditions: MMS.1 cells, increasing concentrations; FIG. 2C. As for the experimental part: (§4) Immunoblotting: Immunoblot analysis was performed using WES kits, (Protein Simple, San Jose, Calif., USA) at least two times each (n≥2), where the best representative is shown.
(§5) The effects of pomalidomide in isogenic sensitive (EJM) and resistant (EJM-PR) and MM1.S cell lines was analyzed. […] To determine the role of PLK1 in pomalidomide response, EJM and EJM-PR cell lines were treated with pomalidomide and analyzed changes in PLK1 levels and downstream signaling. […] The changes in PLK1 transcript levels were further examined in response to pomalidomide treatment in MM1. […] Confocal microscopy was performed to study changes in PLK1 and CDC25C staining in MM1.S cells and a decrease in PLK1 levels and simultaneous decrease in CDC25C staining in response to pomalidomide and Compound 5 treatments was observed. […] Further analysis of the ChIP-seq datasets of Aiolos confirmed binding of Aiolos on TSS of PLK1 with overlapping transcriptional activation H3K27Ac signature extrapolated from publicly available ChIP-seq datasets in GM12878 cell line (Encode project). Since changes in PLK1 levels are due to decrease in PLK1 transcription in response to antiproliferative compounds, the effects of Aiolos and Ikaros knockdowns on PLK1 levels using MM1.S cells with inducible expression of Aiolos and Ikaros shRNAs were analyzed. Both Aiolos and Ikaros knock down lead to a decrease in PLK1 levels (FIG. 2F), indicating transcriptional regulation of PLK1 by substrates of Cereblon.

Assay [5] has as its system PLK1, pCDC25C and CDC25C in EJM cells. Put plainly: Immunoblot of PLK1 signaling. The following applies: EJM (sensitive) cells only, not EJM-PR. Format: cell-based. The method, then:
as §4, §5

For assay [6], the system named is PLK1 transcript in MM1.S cells. Put plainly: PLK1 transcript levels (qPCR). Format: cell-based. The following applies: FIG. 2D. As for the experimental part: RNA Extraction, Reverse Transcription, and Real-Time PCR Analysis: Total RNA was extracted using a RNeasy plus kit (Qiagen, Germantown, Md., USA) and reverse-transcribed using an iScrip reverse transcription kit (Bio-Rad, Philadelphia, Pa., USA). Quantitative real-time PCR (qPCR) analyses were performed using Taqman PCR Master Mix and the ViiA 7 Real-Time PCR System (Applied Biosystems, Foster City, Calif., USA). Gene expressions were calculated following normalization to GAPDH levels using the comparative CT method (ΔΔCT method). The primer sequences for qPCR are following:
The effects of pomalidomide in isogenic sensitive (EJM) and resistant (EJM-PR) and MM1.S cell lines was analyzed. […] To determine the role of PLK1 in pomalidomide response, EJM and EJM-PR cell lines were treated with pomalidomide and analyzed changes in PLK1 levels and downstream signaling. […] The changes in PLK1 transcript levels were further examined in response to pomalidomide treatment in MM1. […] Since changes in PLK1 levels are due to decrease in PLK1 transcription in response to antiproliferative compounds, the effects of Aiolos and Ikaros knockdowns on PLK1 levels using MM1.S cells with inducible expression of Aiolos and Ikaros shRNAs were analyzed. […]

Assay [7] relates to CKS1B and E2F2 in EJM and EJM-PR cell lines. Kind of assay: CKS1B and E2F2 in response to Pom. Format: cell-based. Conditions: isogenic EJM and EJM-PR; FIG. 12. As for the experimental part:
Effects of Pomalidomide (Pom) on CKS1B and E2F2 in Pom sensitive and resistant cell lines. […] Since Aiolos was not degraded in the EJM-PR cell line consistent with the absence of CKS1B and E2F2 downregulation, the binding of Aiolos on the transcriptional start sites (TSS) of CKS1B and E2F2 was analyzed.

A further assay concerns Control shRNA cell lines. Put plainly: Biparametric Annexin V and Propidium Iodide assay. Format: cell-based. The method, then: (§6) Biparametric assay for detection of cell cycle and apoptosis. Cell viability assay with Annexin V-FITC and propidium iodide was performed according to the published protocol cycle (Rieger et al., J Vis Exp. 2011, (50):2597; Léonce et al., Mol Pharmacol. 2001, 60(6):1383-1391).
(§7) Pomalidomide treatment combined with NEK2 inhibition increases apoptosis. Biparametric Annexin V and Propidium Iodide (PI) assay was performed to analyze cell cycle and apoptosis in the same sample and to quantify the proportion of cells undergoing apoptosis at each phase of cell cycle (Rieger et al., J Vis Exp. 2011, (50):2597; Léonce et al., Mol Pharmacol. 2001, 60(6):1383-1391). Control shRNA and NEK2 shRNA cell lines were treated with pomalidomide and followed cell cycle and apoptosis for the duration of two cell cycles. At 72 hours about 5.04% cells in the control shRNA lines were apoptotic compared to 21.1% apoptotic cells in NEK2 shRNA cell lines. […] At 96 hours about 9.5% of the cells in control shRNA lines and 24.7% of the NEK2 shRNA cell lines were apoptotic, and a majority of apoptotic cells were again contributed from G1-S phase of cell cycle. […] Combination of these two agents results in apoptosis of 20-25% cells in each cycle, with majority of apoptotic cells contributed from G1/S phase of cell cycle.

In a further assay the test system is NEK2 shRNA cell lines. Put plainly: Biparametric Annexin V and Propidium Iodide assay. Format: cell-based. The method, then:
as §6, §7

[8] abbreviates: 72 h, Day 3 post treatment, NEK2 inhibitor.
[9] abbreviates: isogenic sensitive/resistant comparison.
Setting [10] is: NCI-H929, 72 h, Day 3 post treatment, NEK2 inhibitor.
[11] abbreviates: NCI-H929, isogenic sensitive/resistant comparison.

Turning to `C#CC(=O)Nc1ccc2c(c1)/C(=C/c1[nH]c(CC)nc1C)C(=O)N2` [JH295, (Z)—N-(3-((2-ethyl-4-methyl-1H-imidazol-5-yl)methylene)-2-oxoindolin-5-yl)propiolamide], the IC50 in the assay on AMO1 cell line (setting [8]) stood at 0.48 µM; in the assay with AMO1 cell line (setting [9]), 0.48 µM; in [1], 0.31 µM; in the assay with K12PE cell line (setting [8]), 4 µM; with K12PE cell line (setting [9]) it was 4 µM; in the assay on K12PE-PR cell line, 10.8 µM. Besides, the IC50 in the assay with H929 cell line (setting [10]) came out at 0.37 µM; in the assay on H929 cell line (setting [11]), 0.37 µM; in the assay on Mc-CAR cell line it was 0.56 µM; with H929-PR cell line, 0.27 µM. Moreover, the “substrate degradation (Ikaros, Aiolos, ZFP91) in comparison to DMSO control” value in [2] was “No effect”.

Take `CC(/C=C\C(F)(F)F)Oc1cc(-c2cc(-c3cc(CN(C)C)cs3)cnc2N)ccc1C(N)=O` (racemic) [Rac-CCT 250863, 4-[2-amino-5-[4-[(dimethylamino)methyl]-2-thienyl]-3-pyridinyl]-2-[[(2Z)-4,4,4-trifluoro-1-methyl-2-buten-1-yl]oxy]benzamide]: the IC50 was determined as 7.1 µM in the assay on AMO1 cell line (setting [8]); 7 µM in the assay with AMO1 cell line (setting [9]); 3.6 µM in assay [1]; 8.7 µM with K12PE cell line (setting [8]); 8.5 µM with K12PE cell line (setting [9]); 5.17 µM in the assay with K12PE-PR cell line. Moreover, the results for the IC50 with H929 cell line (setting [10]), in the assay on H929 cell line (setting [11]) and in the assay with H929-PR cell line were 8 µM, 7.9 µM and 5.2 µM, respectively. Moreover, in [3], the “Selectivity: effect on other kinases, including Cdk1 and Aurora B” value is given as “low effect on other kinases”.

With `Nc1cccc2c1C(=O)N(C1CCC(=O)NC1=O)C2=O` (stereo not drawn) [Compound 1, 4-amino-2-(2,6-dioxopiperidine-3-yl)isoindoline-1,3-dione], the “Synergy with trametinib on proliferation” value (in the assay on AMO1 cell line (in combination with trametinib); in assay [1] (in combination with trametinib)) was “strong synergy” throughout. Moreover, the “Synergy analysis (Calcusyn) of combination with JQ1 on proliferation” value in the assay with K12PE cell line (K12PE cells, in combination with JQ1) is listed as “synergistic”. Besides, the “Synergy of combination with JQ1 on proliferation” value in the assay on K12PE-PR cell line (Pom resistant K12PE-PR, in combination with JQ1) was “synergistically decreased proliferation”. The PLK1 signaling result in assay [4] is given as “dose dependent decrease”. The “PLK1 levels and downstream effector pCDC25C and CDC25C” value in [5] is “dose dependent decrease”. Besides, the PLK1 transcript levels entry in assay [6] is “decreased PLK1 transcript levels in a dose dependent manner”. In addition, the “CKS1B and E2F2 expression” value in assay [7] is listed as “downregulated at the transcriptional level only in Pom sensitive cells”. In addition, the apoptotic cells result in the assay with Control shRNA cell lines (72 hours) is recorded as “about 5.04%”; in the assay on Control shRNA cell lines (96 hours), “about 9.5%”; in the assay with NEK2 shRNA cell lines (72 hours), 21.1%; in the assay with NEK2 shRNA cell lines (96 hours), 24.7%.
